Our source for the IC50 and Ratio IC50 values is ChEMBL document CHEMBL1137564, “Substituted 2-pyrrolinone inhibitors of HIV-1 integrase” (Bioorg Med Chem Lett, 2007).

For test [1], the target named is T1, Human immunodeficiency virus type 1 integrase (Human immunodeficiency virus 1, UniProt Q7ZJM1). In words: Inhibition of HIV1 integrase 3'-end processing activity.
Test [2] addresses T1, Human immunodeficiency virus type 1 integrase. Briefly: Inhibition of HIV1 integrase strand transfer activity.
Test [3] has the same target. In words: Inhibition of HIV1 integrase strand transfer activity in presence of Mg2+.
Test [4] has the same target. In words: Inhibition of HIV1 integrase 3'-end processing activity in presence of Mg2+.
Test [5] deals with Human immunodeficiency virus type 1 integrase (Human immunodeficiency virus 1) (UniProt Q7ZJM1). In words: Selectivity for HIV1 integrase strand transfer activity over 3'-end processing activity in presence of Mg2+.
Sequence of Human immunodeficiency virus type 1 integrase (Human immunodeficiency virus 1) (Q7ZJM1 as listed by the source): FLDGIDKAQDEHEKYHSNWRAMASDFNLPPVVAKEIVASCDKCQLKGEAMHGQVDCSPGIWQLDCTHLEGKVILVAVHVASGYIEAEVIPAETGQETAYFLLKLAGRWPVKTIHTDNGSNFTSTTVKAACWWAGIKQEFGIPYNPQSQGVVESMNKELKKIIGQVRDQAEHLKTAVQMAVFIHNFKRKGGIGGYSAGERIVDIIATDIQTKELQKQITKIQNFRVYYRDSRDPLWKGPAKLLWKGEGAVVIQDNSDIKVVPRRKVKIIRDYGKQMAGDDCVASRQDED

T1 sequence (Q7ZJM1 whole entry): as the sequence (Q7ZJM1 as listed by the source) above

As to `Cc1ccc(C(=O)C2=C(O)C(=O)N(c3nccs3)C2c2ccc(F)cc2)cc1` (stereo unspecified), the IC50 is over 100 µM in test [1] and 78 µM in test [2].
Take `CCOC(=O)c1sc(N2C(=O)C(O)=C(C(=O)c3ccccc3)C2c2ccc(F)cc2)nc1C` (stereo unspecified): the IC50 stood at 44 µM in test [1] and 21 µM in test [2].
On the same counts, the results for `O=C(C1=C(O)C(=O)N(c2nc3ccccc3s2)C1c1ccccn1)c1ccc(Cl)cc1` (stereo unspecified) are over 100 µM and 83 µM.
For the compound `Cc1ccc(C(=O)C2=C(O)C(=O)N(c3ncc(S(=O)(=O)c4ccc([N+](=O)[O-])cc4)s3)C2c2cccc(Cl)c2)cc1` (stereo unspecified), the IC50 in test [1] is 27 µM; in test [2], 8 µM; in test [3], 6.1 µM; in test [4] it was over 100 µM.
`CCOC(=O)c1sc(N2C(=O)C(O)=C(C(=O)c3ccc(C)cc3)C2c2ccc(F)cc2)nc1C` (stereo unspecified): the IC50 in test [1] is over 100 µM; in test [2], 33 µM.
Consider `CCOc1ccc(C(=O)C2=C(O)C(=O)N(c3nnc(C)s3)C2c2ccc(F)cc2)cc1` (stereo unspecified), for which the IC50 in test [1] and in test [2] was over 100 µM throughout.
Regarding `COc1ccc(OC)c(C(=O)C2=C(O)C(=O)N(CCCCCC(=O)O)C2c2ccc(Cl)cc2)c1` (stereo unspecified), the Ratio IC50 in test [5] is over 10. Further, the IC50 is 88 µM in test [1], 40 µM in test [2], 10 µM in test [3] and over 100 µM in test [4].
As for `CCOc1ccc(C(=O)C2=C(O)C(=O)N(c3nccs3)C2c2ccc(OC)cc2)cc1` (stereo unspecified), the IC50 was over 100 µM in test [1] and 90 µM in test [2].
On the same counts, the results for `COc1ccc(C2C(C(=O)c3ccc(Br)cc3)=C(O)C(=O)N2c2cc(C(C)(C)C)on2)cc1OC` (stereo unspecified) are 45 µM and 43 µM.
In the same order, the values of `O=C(C1=C(O)C(=O)N(c2nc3ccccc3s2)C1c1ccc2c(c1)OCO2)c1ccccc1` (stereo unspecified) are 57 µM and 21 µM.
Turning to `Cc1ccc(C2C(C(=O)c3ccc(Cl)cc3)=C(O)C(=O)N2CC(=O)O)cc1` (stereo unspecified), the IC50 in test [1] amounted to 84 µM; in test [2] it was 69 µM.
On the same counts, the results for `COc1ccc(C2C(C(=O)c3ccc(Br)cc3)=C(O)C(=O)N2c2cccc(C(F)(F)F)c2)cc1OC` (stereo unspecified) are 47 µM and 26 µM.
On the same counts, the results for `CC(C)(C)c1ccc(C2C(C(=O)c3ccc(F)cc3)=C(O)C(=O)N2c2nncs2)cc1` (stereo unspecified) are 64 µM and 43 µM.
In the same order, the values of `O=C(C1=C(O)C(=O)N(c2nc3ccccc3s2)C1c1cccnc1)c1ccc(Cl)cc1` (stereo unspecified) are over 100 µM and 90 µM.
For `Cc1ccc(C(=O)C2=C(O)C(=O)N(CCCn3ccnc3)C2c2ccc(Cl)cc2)cc1` (stereo unspecified), the figures for the IC50 in test [1] and in test [2] were 93 µM and 67 µM, respectively.
In the same order, the values of `Cc1ccc(C(=O)C2=C(O)C(=O)N(c3nccs3)C2c2ccc(Cl)cc2)cc1` (stereo unspecified) are 56 µM and 39 µM.
Turning to `COc1ccc(C(=O)C2=C(O)C(=O)N(CCc3ccccc3)C2c2ccc(Br)cc2)cc1OC` (stereo unspecified), the figures for the IC50 in test [1] and in test [2] were 60 µM and 42 µM, respectively.
Take `CCOc1ccc(C(=O)C2=C(O)C(=O)N(c3nccs3)C2c2ccc(O)c(OC)c2)cc1` (stereo unspecified): the IC50 worked out at 57 µM in test [1] and 30 µM in test [2].

The IC50 is the point on the concentration scale where inhibition reaches its midpoint.
